From ChEMBL document CHEMBL3390836, “Mannich- and LedererManasse-based analogues of the natural product S-(+)-curcuphenol as cancer proliferation and migration inhibitors” (Medchemcomm, 2012)

Tests used:
Assay type in all cases: functional
[1] = test system: HOP-62; test: Cytotoxicity against human HOP62 cells assessed as cell growth at 10^-4 M after 48 hrs by SRB assay relative to control; details: HOP-62, 48 h, read-out: Activity
[2] = test system: NCI-H226; test: Cytotoxicity against human NCI-H226 cells assessed as cell growth at 10^-4 M after 48 hrs by SRB assay relative to control; details: NCI-H226, 48 h, read-out: Activity
[3] = test system: SK-MEL-2; test: Cytotoxicity against human SK-MEL-2 cells after 48 hrs by SRB assay; details: SK-MEL-2, 48 h
[4] = test system: SK-MEL-5; test: Cytotoxicity against human SK-MEL-5 cells after 48 hrs by SRB assay; details: SK-MEL-5, 48 h
[5] = Cytotoxicity against human OVCAR8 cells after 48 hrs by SRB assay; details: OVCAR-8, 48 h; for CC50: read-out: LC50 (the source's name)
[6] = test system: SF-295; test: Cytotoxicity against human SF295 cells assessed as cell growth at 10^-4 M after 48 hrs by SRB assay relative to control; details: SF-295, 48 h, read-out: Activity
[7] = test system: SF-539; test: Cytotoxicity against human SF539 cells assessed as cell growth at 10^-4 M after 48 hrs by SRB assay relative to control; details: SF-539, 48 h, read-out: Activity
[8] = test system: LOX IMVI; test: Cytotoxicity against human LOXIMVI cells assessed as cell growth at 10^-4 M after 48 hrs by SRB assay relative to control; details: read-out: Activity
[9] = test system: T47D; test: Cytotoxicity against human T47D cells after 48 hrs by SRB assay
[10] = test system: K562; test: Cytotoxicity against human K562 cells assessed as cell growth at 10^-8 M after 48 hrs by SRB assay relative to control; details: K562, 48 h, read-out: Activity
[11] = test system: MOLT-4; test: Cytotoxicity against human MOLT4 cells assessed as cell growth at 10^-8 M after 48 hrs by SRB assay relative to control; details: MOLT-4, 48 h, read-out: Activity
[12] = test system: A549; test: Cytotoxicity against human A549 cells assessed as cell growth at 10^-8 M after 48 hrs by SRB assay relative to control; details: A549, 48 h, read-out: Activity
[13] = test system: NCI-H23; test: Cytotoxicity against human NCI-H23 cells assessed as cell growth at 10^-8 M after 48 hrs by SRB assay relative to control; details: NCI-H23, 48 h, read-out: Activity
[14] = test system: U-251; test: Cytotoxicity against human U251 cells assessed as cell growth at 10^-8 M after 48 hrs by SRB assay relative to control; details: U-251, 48 h, read-out: Activity
[15] = test system: Malme-3M; test: Cytotoxicity against human MALME-3M cells assessed as cell growth at 10^-8 M after 48 hrs by SRB assay relative to control; details: read-out: Activity
[16] = Cytotoxicity against human SKOV3 cells assessed as cell growth at 10^-4 M after 48 hrs by SRB assay relative to control; details: SK-OV-3, 48 h, read-out: Activity
[17] = test system: TK-10; test: Cytotoxicity against human TK10 cells assessed as cell growth at 10^-8 M after 48 hrs by SRB assay relative to control; details: TK-10, 48 h, read-out: Activity
[18] = Cytotoxicity against human EKVX cells assessed as cell growth at 10^-7 M after 48 hrs by SRB assay relative to control; details: read-out: Activity
[19] = test system: NCI-H322M; test: Cytotoxicity against human NCI-H322M cells assessed as cell growth at 10^-7 M after 48 hrs by SRB assay relative to control; details: read-out: Activity
[20] = test system: HCC 2998; test: Cytotoxicity against human HCC2998 cells assessed as cell growth at 10^-7 M after 48 hrs by SRB assay relative to control; details: HCC 2998, 48 h, read-out: Activity
[21] = test system: LOX IMVI; test: Cytotoxicity against human LOXIMVI cells assessed as cell growth at 10^-7 M after 48 hrs by SRB assay relative to control; details: read-out: Activity
[22] = test system: NCI-H226; test: Cytotoxicity against human NCI-H226 cells after 48 hrs by SRB assay; details: NCI-H226, 48 h
[23] = test system: SK-MEL-5; test: Cytotoxicity against human SK-MEL-5 cells assessed as cell growth at 10^-7 M after 48 hrs by SRB assay relative to control; details: SK-MEL-5, 48 h, read-out: Activity
[24] = Cytotoxicity against human OVCAR5 cells assessed as cell growth at 10^-7 M after 48 hrs by SRB assay relative to control; details: OVCAR-5, 48 h, read-out: Activity
[25] = test system: RXF 393; test: Cytotoxicity against human RXF393 cells assessed as cell growth at 10^-7 M after 48 hrs by SRB assay relative to control; details: RXF 393, 48 h, read-out: Activity
[26] = test system: MCF7; test: Cytotoxicity against human MCF7 cells assessed as cell growth at 10^-7 M after 48 hrs by SRB assay relative to control; details: MCF7, 48 h, read-out: Activity
[27] = test system: HL-60(TB); test: Cytotoxicity against human HL-60(TB) cells assessed as cell growth at 10^-6 M after 48 hrs by SRB assay relative to control; details: HL-60, 48 h, read-out: Activity
[28] = test system: A549; test: Cytotoxicity against human A549 cells assessed as cell growth at 10^-6 M after 48 hrs by SRB assay relative to control; details: A549, 48 h, read-out: Activity
[29] = test system: NCI-H226; test: Cytotoxicity against human NCI-H226 cells assessed as cell growth at 10^-6 M after 48 hrs by SRB assay relative to control; details: NCI-H226, 48 h, read-out: Activity
[30] = test system: SNB-75; test: Cytotoxicity against human SNB75 cells assessed as cell growth at 10^-6 M after 48 hrs by SRB assay relative to control; details: SNB-75, 48 h, read-out: Activity
[31] = test system: Malme-3M; test: Cytotoxicity against human MALME-3M cells assessed as cell growth at 10^-6 M after 48 hrs by SRB assay relative to control; details: read-out: Activity
[32] = test system: SK-MEL-28; test: Cytotoxicity against human SK-MEL-28 cells assessed as cell growth at 10^-6 M after 48 hrs by SRB assay relative to control; details: SK-MEL-28, 48 h, read-out: Activity
[33] = Cytotoxicity against human OVCAR3 cells assessed as cell growth at 10^-6 M after 48 hrs by SRB assay relative to control; details: OVCAR-3, 48 h, read-out: Activity
[34] = Cytotoxicity against human OVCAR8 cells assessed as cell growth at 10^-6 M after 48 hrs by SRB assay relative to control; details: OVCAR-8, 48 h, read-out: Activity
[35] = Cytotoxicity against human SKOV3 cells assessed as cell growth at 10^-6 M after 48 hrs by SRB assay relative to control; details: SK-OV-3, 48 h, read-out: Activity
[36] = test system: ACHN; test: Cytotoxicity against human ACHN cells assessed as cell growth at 10^-6 M after 48 hrs by SRB assay relative to control; details: read-out: Activity

COc1ccc(CCN2COc3c([C@@H](C)CCC=C(C)C)ccc(C)c3C2)cc1OC
growth at 100 µM [1]: 100%
growth at 100 µM [2]: -93%
GI50 [3]: 1.88 µM
LC50 [3]: 7.79 µM
TGI [3]: 3.82 µM
GI50 [4]: 1.64 µM
LC50 [4]: 5.66 µM
TGI [4]: 3.04 µM
GI50 [5]: 4.21 µM
TGI [5]: 20.2 µM
CC50 [5]: 89.5 µM
growth at 100 µM [6]: -87%
growth at 100 µM [7]: -100%
growth at 100 µM [8]: -93%
GI50 [9]: 1.78 µM
LC50 (concentration killing 50% of cells) [9]: 8.12 µM
TGI [9]: 3.8 µM
growth at 0.01 µM [10]: 102%
growth at 0.01 µM [11]: 90%
growth at 0.01 µM [12]: 87%
growth at 0.01 µM [13]: 97%
growth at 0.01 µM [14]: 92%
growth at 0.01 µM [15]: 91%
growth at 100 µM [16]: -60%
growth at 0.01 µM [17]: 88%
growth at 0.1 µM [18]: 91%
growth at 0.1 µM [19]: 95%
growth at 0.1 µM [20]: 83%
growth at 0.1 µM [21]: 84%
GI50 [22]: 8.64 µM
LC50 [22]: 49.1 µM
TGI [22]: 21.6 µM
growth at 0.1 µM [23]: 91%
growth at 0.1 µM [24]: 98%
growth at 0.1 µM [25]: 88%
growth at 0.1 µM [26]: 90%
growth at 1 µM [27]: 100%
growth at 1 µM [28]: 95%
growth at 1 µM [29]: 94%
growth at 1 µM [30]: 86%
growth at 1 µM [31]: 79%
growth at 1 µM [32]: 99%
growth at 1 µM [33]: 91%
growth at 1 µM [34]: 94%
growth at 1 µM [35]: 102%
growth at 1 µM [36]: 85%

CC(C)=CCC[C@H](C)c1ccc(C)c2c1OCN(CC1CCNCC1)C2
growth at 100 µM [1]: -94%
growth at 100 µM [2]: -84%
GI50 [3]: 18.2 µM
LC50 [3]: 69.2 µM
TGI [3]: 35.5 µM
GI50 [4]: 4.97 µM
LC50 [4]: 49.8 µM
TGI [4]: 18.3 µM
GI50 [5]: 18.4 µM
TGI [5]: 34.5 µM
CC50 [5]: 64.6 µM
growth at 100 µM [6]: -67%
growth at 100 µM [7]: -93%
growth at 100 µM [8]: -80%
GI50 [9]: 15.2 µM
LC50 (concentration killing 50% of cells) [9]: 72.8 µM
TGI [9]: 33.2 µM
growth at 0.01 µM [10]: 97%
growth at 0.01 µM [11]: 106%
growth at 0.01 µM [12]: 95%
growth at 0.01 µM [13]: 94%
growth at 0.01 µM [14]: 99%
growth at 0.01 µM [15]: 92%
growth at 100 µM [16]: -94%
growth at 0.01 µM [17]: 118%
growth at 0.1 µM [18]: 103%
growth at 0.1 µM [19]: 99%
growth at 0.1 µM [20]: 105%
growth at 0.1 µM [21]: 92%
GI50 [22]: 17.7 µM
LC50 [22]: 64.5 µM
TGI [22]: 33.8 µM
growth at 0.1 µM [23]: 88%
growth at 0.1 µM [24]: 87%
growth at 0.1 µM [25]: 112%
growth at 0.1 µM [26]: 97%
growth at 1 µM [27]: 82%
growth at 1 µM [28]: 96%
growth at 1 µM [29]: 101%
growth at 1 µM [30]: 85%
growth at 1 µM [31]: 95%
growth at 1 µM [32]: 101%
growth at 1 µM [33]: 105%
growth at 1 µM [34]: 100%
growth at 1 µM [35]: 100%
growth at 1 µM [36]: 106%

CC(C)=CCC[C@H](C)c1ccc(C)c(CNCC2CCNCC2)c1O
growth at 100 µM [1]: -74%
growth at 100 µM [2]: 37%
GI50 [3]: 5.03 µM
LC50 [3]: 19.2 µM
TGI [3]: 9.83 µM
GI50 [4]: 3.41 µM
LC50 [4]: 12.9 µM
TGI [4]: 6.63 µM
GI50 [5]: 4.35 µM
TGI [5]: 9.66 µM
CC50 [5]: 21.5 µM
growth at 100 µM [6]: -73%
growth at 100 µM [7]: -77%
growth at 100 µM [8]: -79%
GI50 [9]: 4.33 µM
LC50 (concentration killing 50% of cells) [9]: 18.1 µM
TGI [9]: 8.86 µM
growth at 0.01 µM [10]: 103%
growth at 0.01 µM [11]: 107%
growth at 0.01 µM [12]: 101%
growth at 0.01 µM [13]: 94%
growth at 0.01 µM [14]: 96%
growth at 0.01 µM [15]: 97%
growth at 100 µM [16]: 8%
growth at 0.01 µM [17]: 92%
growth at 0.1 µM [18]: 94%
growth at 0.1 µM [19]: 94%
growth at 0.1 µM [20]: 95%
growth at 0.1 µM [21]: 95%
GI50 [22]: 10.4 µM
LC50 [22]: > 25 µM
TGI [22]: > 25 µM
growth at 0.1 µM [23]: 90%
growth at 0.1 µM [24]: 96%
growth at 0.1 µM [25]: 85%
growth at 0.1 µM [26]: 97%
growth at 1 µM [27]: 88%
growth at 1 µM [28]: 98%
growth at 1 µM [29]: 86%
growth at 1 µM [30]: 89%
growth at 1 µM [31]: 84%
growth at 1 µM [32]: 98%
growth at 1 µM [33]: 103%
growth at 1 µM [34]: 100%
growth at 1 µM [35]: 104%
growth at 1 µM [36]: 92%
